Results from patent US11160742B2, “Methods and compositions for improving hair color fastness and rejuvenating hair color” (L'Oreal, priority 2018, dated 2021).

experiment: Partition coefficient (Log Po/w) of direct dyes; conditions: octanol/water partition coefficient

Row | Compound | Log Po/w value
1 | CN(C)c1ccc(/N=N/c2n(C)cc[n+]2C)cc1 [BASIC RED 51, Basic Red 51] | around −1.97
2 | CN(N=Cc1cc[n+](C)cc1)c1ccccc1 [BASIC YELLOW 87, Basic Yellow 87] | around −1.67
3 | Cn1cc[n+](C)c1N=Nc1ccc(N)cc1.[Cl-] [BASIC ORANGE 31, Basic Orange 31] | around −2.31

same assay, conditions: octanol/water partition coefficient, table of dyes

Row | Compound | Log Po/w
4 | O=C([O-])c1c(Cl)c(Cl)c(Cl)c(Cl)c1-c1c2cc(Br)c(=O)c(Br)c-2oc2c(Br)c([O-])c(Br)cc12.[Na+].[Na+] [ACIDE RED 92] | 3
5 | Cc1ccc(Nc2ccc(Nc3ccc(C)cc3S(=O)(=O)[O-])c3c2C(=O)c2ccccc2C3=O)c(S(=O)(=O)[O-])c1.[Na+].[Na+] [ACID GREEN 25] | 5.71
6 | O=S(=O)([O-])c1ccc(N=Nc2c(O)ccc3ccccc23)cc1.[Na+] [ACID ORANGE 7] | 1.4
7 | C[N+](C)(C)c1cccc(N=C2C=C(N)c3c(O)c(Br)cc(N)c3C2=O)c1.[Cl-] [BASIC BLUE 99] | 1.88
8 | Nc1c(N=Nc2ccc([N+](=O)[O-])cc2)c(S(=O)(=O)[O-])cc2cc(S(=O)(=O)[O-])c(N=Nc3ccccc3)c(O)c12.[Na+].[Na+] [ACID BLACK 1] | 1.2
9 | Cc1ccc(Nc2ccc(O)c3c2C(=O)c2ccccc2C3=O)c(S(=O)(=O)[O-])c1.[Na+] [ACIDE VIOLET 43] | 3.1
10 | C[N+](C)(C)c1ccc2ccc(O)c(N=Nc3ccc(N)c([N+](=O)[O-])c3)c2c1.[Cl-] [BASIC BROWN 17] | −0.15
11 | CNc1cc(OCC(O)CO)ccc1[N+](=O)[O-] (centres unmarked) [2-NITRO-5-GLYCERYL METHYLANILINE] | 0.89
12 | Nc1cc(S(=O)(=O)[O-])cc2cc(S(=O)(=O)[O-])c(N=Nc3ccccc3)c(O)c12.[Na+].[Na+] [ACID RED 33] | 0.5
13 | CCN(CC)c1ccc2c(-c3ccc(S(=O)(=O)[O-])cc3S(=O)(=O)[O-])c3ccc(=[N+](CC)CC)cc-3oc2c1.[Na+] [ACID RED 52] | 1.3
14 | CCN(Cc1cccc(S(=O)(=O)[O-])c1)c1ccc(C(=C2C=CC(=[N+](CC)Cc3cccc(S(=O)(=O)[O-])c3)C=C2)c2ccccc2S(=O)(=O)[O-])cc1.[Na+].[Na+] [ACID BLUE 9] | −0.32
15 | Cn1cc[n+](C)c1N=Nc1ccc(N)cc1.[Cl-] [BASIC ORANGE 31, Basic Orange 31] | −2.31
16 | O=[N+]([O-])c1cc(O)ccc1NCCO [3-NITRO-P-HYDROXYETHYLAMINOPHENOL] | 0.21
17 | O=S(=O)(O)c1cc(S(=O)(=O)O)c2c(/N=N\c3ccc(S(=O)(=O)O)c4ccccc34)c(O)ccc2c1 [ACID RED18] | 1.63
18 | ACID YELLOW 3 | −1.05
19 | O=C([O-])C1=NN(c2ccc(S(=O)(=O)[O-])cc2)C(=O)C1N=Nc1ccc(S(=O)(=O)[O-])cc1.[Na+].[Na+].[Na+] (centres unmarked) [ACID YELLOW 23] | −10.17
20 | Nc1ccc(O)cc1[N+](=O)[O-] [4-AMINO-3-NITROPHENOL] | 1.19

More lines, now with the values ahead:

Row | Log Po/w | Compound
21 | −1.97 | CN(C)c1ccc(/N=N/c2n(C)cc[n+]2C)cc1 [BASIC RED 51, Basic Red 51]
22 | 0.13 | HC RED NO. 7
23 | 2.09 | O=C1c2ccccc2C(=O)c2c(NCC(O)CO)ccc(NCC(O)CO)c21 (centres unmarked) [HC BLUE NO. 14]
24 | 0.608 | O=[N+]([O-])c1cc(N(CCO)CCO)ccc1NCCCO [HC VIOLET NO 2]
25 | 2.59 | Cc1cc(N(CCO)CCO)ccc1N=Nc1ccc(N)cc1 [HC YELLOW NO. 7]
26 | 0.67 | Cc1cc(N)c([N+](=O)[O-])cc1NCCO [HC VIOLET NO 1]
27 | −1.69 | CN(N=Cc1cc[n+](C)cc1)c1ccccc1 [BASIC YELLOW 87, Basic Yellow 87]
28 | −0.32 | O=[N+]([O-])c1cc(N(CCO)CCO)ccc1NCCO [HC BLUE NO. 2]
29 | 1.3 | COc1ccc([N+](=O)[O-])c(NCCN)c1.Cl [HC YELLOW NO. 9]
30 | 0.13 | NCCNc1ccc(OCCO)cc1[N+](=O)[O-] [HC ORANGE NO. 2]
31 | −0.42 | Nc1ccc(NCCO)c([N+](=O)[O-])c1 [HC RED NO. 3]
32 | 0.89 | COS(=O)(=O)[O-].C[N+]1(CCCNc2ccc(O)c3c2C(=O)c2ccccc2C3=O)CCOCC1 [HYDROXYANTHRAQUINONEAMINO-PROPYL METHYL MORPHOLINIUM METHOSULFATE]
33 | 3 | Nc1ccc(N)c2c1C(=O)c1ccccc1C2=O [DISPERSE VIOLET 1]
34 | 0.06 | CC1=NN(c2ccccc2)C(=O)C1N=Nc1cccc([N+](C)(C)C)c1.[Cl-] (centres unmarked) [BASIC YELLOW 57]
35 | 3.47 | CC1=CC(=C(c2cc(C)c(N)c(C)c2)c2c(Cl)cccc2Cl)C=C(C)C1=N.O=P(O)(O)O [HC BLUE NO. 15]
